Measurements from the NIST ThermoML archive (doi:10.1016/j.jct.2017.07.004).
Numbers after ± are expanded uncertainties.

Test: xn = mol fraction of the nth substance listed
Settings: 100 kPa, Liquid; for viscosity: Concentric cylinders viscometry; for mass density: Vibrating tube method

CCC=O [propanal] + CCCC(C)O
viscosity (293.15 K, x1 = 0.0809): 3.75 ± 0.3 mPa·s
viscosity (293.15 K, x1 = 0.1599): 3.51 ± 0.28 mPa·s
viscosity (293.15 K, x1 = 0.2402): 3.25 ± 0.26 mPa·s
viscosity (293.15 K, x1 = 0.35): 2.87 ± 0.23 mPa·s
viscosity (293.15 K, x1 = 0.44): 2.54 ± 0.2 mPa·s
viscosity (293.15 K, x1 = 0.5599): 2.08 ± 0.17 mPa·s
viscosity (293.15 K, x1 = 0.65): 1.73 ± 0.14 mPa·s
viscosity (293.15 K, x1 = 0.74): 1.38 ± 0.11 mPa·s
viscosity (293.15 K, x1 = 0.85): 0.94 ± 0.08 mPa·s
viscosity (293.15 K, x1 = 0.94): 0.57 ± 0.05 mPa·s
viscosity (293.15 K, x1 = 1): 0.34 ± 0.03 mPa·s
mass density (293.15 K, x1 = 0.0809): 811 ± 1 kg/m3
mass density (293.15 K, x1 = 0.1599): 813.1 ± 1 kg/m3
mass density (293.15 K, x1 = 0.2402): 814.7 ± 1 kg/m3
mass density (293.15 K, x1 = 0.35): 816.4 ± 1 kg/m3
mass density (293.15 K, x1 = 0.44): 817 ± 1 kg/m3
mass density (293.15 K, x1 = 0.5599): 816.7 ± 1 kg/m3
mass density (293.15 K, x1 = 0.65): 815.8 ± 1 kg/m3
mass density (293.15 K, x1 = 0.74): 814.1 ± 1 kg/m3
mass density (293.15 K, x1 = 0.85): 810.6 ± 1 kg/m3
mass density (293.15 K, x1 = 0.94): 806.5 ± 1 kg/m3
mass density (293.15 K, x1 = 1): 802.4 ± 1 kg/m3
viscosity (298.15 K, x1 = 0.0809): 3.11 ± 0.25 mPa·s
viscosity (298.15 K, x1 = 0.1599): 2.91 ± 0.23 mPa·s
viscosity (298.15 K, x1 = 0.2402): 2.71 ± 0.22 mPa·s
viscosity (298.15 K, x1 = 0.35): 2.42 ± 0.19 mPa·s
viscosity (298.15 K, x1 = 0.44): 2.15 ± 0.17 mPa·s
viscosity (298.15 K, x1 = 0.5599): 1.78 ± 0.14 mPa·s
viscosity (298.15 K, x1 = 0.65): 1.49 ± 0.12 mPa·s
viscosity (298.15 K, x1 = 0.74): 1.2 ± 0.1 mPa·s
viscosity (298.15 K, x1 = 0.85): 0.83 ± 0.07 mPa·s
viscosity (298.15 K, x1 = 0.94): 0.52 ± 0.04 mPa·s
viscosity (298.15 K, x1 = 1): 0.33 ± 0.03 mPa·s
mass density (298.15 K, x1 = 0.0809): 806.6 ± 1 kg/m3
mass density (298.15 K, x1 = 0.1599): 808 ± 1 kg/m3
mass density (298.15 K, x1 = 0.2402): 809.2 ± 1 kg/m3
mass density (298.15 K, x1 = 0.35): 809.9 ± 1 kg/m3
mass density (298.15 K, x1 = 0.44): 810.2 ± 1 kg/m3
mass density (298.15 K, x1 = 0.5599): 809.5 ± 1 kg/m3
mass density (298.15 K, x1 = 0.65): 808.4 ± 1 kg/m3
mass density (298.15 K, x1 = 0.74): 806.6 ± 1 kg/m3
mass density (298.15 K, x1 = 0.85): 803.4 ± 1 kg/m3
mass density (298.15 K, x1 = 0.94): 799.8 ± 1 kg/m3
mass density (298.15 K, x1 = 1): 796.2 ± 1 kg/m3
viscosity (303.15 K, x1 = 0.0809): 2.64 ± 0.21 mPa·s
viscosity (303.15 K, x1 = 0.1599): 2.47 ± 0.2 mPa·s
viscosity (303.15 K, x1 = 0.2402): 2.29 ± 0.18 mPa·s
viscosity (303.15 K, x1 = 0.35): 2.04 ± 0.16 mPa·s
viscosity (303.15 K, x1 = 0.44): 1.82 ± 0.15 mPa·s
viscosity (303.15 K, x1 = 0.5599): 1.52 ± 0.12 mPa·s
viscosity (303.15 K, x1 = 0.65): 1.29 ± 0.1 mPa·s
viscosity (303.15 K, x1 = 0.74): 1.04 ± 0.08 mPa·s
viscosity (303.15 K, x1 = 0.85): 0.73 ± 0.06 mPa·s
viscosity (303.15 K, x1 = 0.94): 0.47 ± 0.04 mPa·s
viscosity (303.15 K, x1 = 1): 0.31 ± 0.03 mPa·s
mass density (303.15 K, x1 = 0.0809): 802.1 ± 1 kg/m3
mass density (303.15 K, x1 = 0.1599): 803.2 ± 1 kg/m3
mass density (303.15 K, x1 = 0.2402): 804 ± 1 kg/m3
mass density (303.15 K, x1 = 0.35): 804.5 ± 1 kg/m3
mass density (303.15 K, x1 = 0.44): 804.4 ± 1 kg/m3
mass density (303.15 K, x1 = 0.5599): 803.5 ± 1 kg/m3
mass density (303.15 K, x1 = 0.65): 802.2 ± 1 kg/m3
mass density (303.15 K, x1 = 0.74): 800.4 ± 1 kg/m3
mass density (303.15 K, x1 = 0.85): 797.1 ± 1 kg/m3
mass density (303.15 K, x1 = 0.94): 793.6 ± 1 kg/m3
mass density (303.15 K, x1 = 1): 790.3 ± 1 kg/m3
viscosity (308.15 K, x1 = 0.0809): 2.24 ± 0.18 mPa·s
viscosity (308.15 K, x1 = 0.1599): 2.11 ± 0.17 mPa·s
viscosity (308.15 K, x1 = 0.2402): 1.96 ± 0.16 mPa·s
viscosity (308.15 K, x1 = 0.35): 1.74 ± 0.14 mPa·s
viscosity (308.15 K, x1 = 0.44): 1.55 ± 0.12 mPa·s
viscosity (308.15 K, x1 = 0.5599): 1.29 ± 0.1 mPa·s
viscosity (308.15 K, x1 = 0.65): 1.1 ± 0.09 mPa·s
viscosity (308.15 K, x1 = 0.74): 0.89 ± 0.07 mPa·s
viscosity (308.15 K, x1 = 0.85): 0.64 ± 0.05 mPa·s
viscosity (308.15 K, x1 = 0.94): 0.43 ± 0.04 mPa·s
viscosity (308.15 K, x1 = 1): 0.3 ± 0.03 mPa·s
mass density (308.15 K, x1 = 0.0809): 797.7 ± 1 kg/m3
mass density (308.15 K, x1 = 0.1599): 798.5 ± 1 kg/m3
mass density (308.15 K, x1 = 0.2402): 798.9 ± 1 kg/m3
mass density (308.15 K, x1 = 0.35): 799 ± 1 kg/m3
mass density (308.15 K, x1 = 0.44): 798.7 ± 1 kg/m3
mass density (308.15 K, x1 = 0.5599): 797.5 ± 1 kg/m3
mass density (308.15 K, x1 = 0.65): 796.1 ± 1 kg/m3
mass density (308.15 K, x1 = 0.74): 794.2 ± 1 kg/m3
mass density (308.15 K, x1 = 0.85): 791 ± 1 kg/m3
mass density (308.15 K, x1 = 0.94): 787.6 ± 1 kg/m3
mass density (308.15 K, x1 = 1): 784.5 ± 1 kg/m3
viscosity (313.15 K, x1 = 0.0809): 1.88 ± 0.15 mPa·s
viscosity (313.15 K, x1 = 0.1599): 1.76 ± 0.14 mPa·s
viscosity (313.15 K, x1 = 0.2402): 1.63 ± 0.13 mPa·s
viscosity (313.15 K, x1 = 0.35): 1.45 ± 0.12 mPa·s
viscosity (313.15 K, x1 = 0.44): 1.3 ± 0.1 mPa·s
viscosity (313.15 K, x1 = 0.5599): 1.09 ± 0.09 mPa·s
viscosity (313.15 K, x1 = 0.65): 0.92 ± 0.07 mPa·s
viscosity (313.15 K, x1 = 0.74): 0.75 ± 0.06 mPa·s
viscosity (313.15 K, x1 = 0.85): 0.56 ± 0.05 mPa·s
viscosity (313.15 K, x1 = 0.94): 0.39 ± 0.03 mPa·s
viscosity (313.15 K, x1 = 1): 0.28 ± 0.02 mPa·s
mass density (313.15 K, x1 = 0.0809): 793.1 ± 1 kg/m3
mass density (313.15 K, x1 = 0.1599): 793.6 ± 1 kg/m3
mass density (313.15 K, x1 = 0.2402): 793.9 ± 1 kg/m3
mass density (313.15 K, x1 = 0.35): 793.8 ± 1 kg/m3
mass density (313.15 K, x1 = 0.44): 793.3 ± 1 kg/m3
mass density (313.15 K, x1 = 0.5599): 792 ± 1 kg/m3
mass density (313.15 K, x1 = 0.65): 790.5 ± 1 kg/m3
mass density (313.15 K, x1 = 0.74): 788.5 ± 1 kg/m3
mass density (313.15 K, x1 = 0.85): 785.3 ± 1 kg/m3
mass density (313.15 K, x1 = 0.94): 781.9 ± 1 kg/m3
mass density (313.15 K, x1 = 1): 779 ± 1 kg/m3
viscosity (318.15 K, x1 = 0.0809): 1.55 ± 0.12 mPa·s
viscosity (318.15 K, x1 = 0.1599): 1.45 ± 0.12 mPa·s
viscosity (318.15 K, x1 = 0.2402): 1.34 ± 0.11 mPa·s
viscosity (318.15 K, x1 = 0.35): 1.19 ± 0.1 mPa·s
viscosity (318.15 K, x1 = 0.44): 1.07 ± 0.09 mPa·s
viscosity (318.15 K, x1 = 0.5599): 0.9 ± 0.07 mPa·s
viscosity (318.15 K, x1 = 0.65): 0.77 ± 0.06 mPa·s
viscosity (318.15 K, x1 = 0.74): 0.64 ± 0.05 mPa·s
viscosity (318.15 K, x1 = 0.85): 0.49 ± 0.04 mPa·s
viscosity (318.15 K, x1 = 0.94): 0.35 ± 0.03 mPa·s
viscosity (318.15 K, x1 = 1): 0.27 ± 0.02 mPa·s
mass density (318.15 K, x1 = 0.0809): 788.6 ± 1 kg/m3
mass density (318.15 K, x1 = 0.1599): 788.9 ± 1 kg/m3
mass density (318.15 K, x1 = 0.2402): 789 ± 1 kg/m3
mass density (318.15 K, x1 = 0.35): 788.7 ± 1 kg/m3
mass density (318.15 K, x1 = 0.44): 788.1 ± 1 kg/m3
mass density (318.15 K, x1 = 0.5599): 786.5 ± 1 kg/m3
mass density (318.15 K, x1 = 0.65): 785 ± 1 kg/m3
mass density (318.15 K, x1 = 0.74): 782.9 ± 1 kg/m3
mass density (318.15 K, x1 = 0.85): 779.6 ± 1 kg/m3
mass density (318.15 K, x1 = 0.94): 776.2 ± 1 kg/m3
mass density (318.15 K, x1 = 1): 773.5 ± 1 kg/m3
viscosity (323.15 K, x1 = 0.0809): 1.29 ± 0.1 mPa·s
viscosity (323.15 K, x1 = 0.1599): 1.2 ± 0.1 mPa·s
viscosity (323.15 K, x1 = 0.2402): 1.1 ± 0.09 mPa·s
viscosity (323.15 K, x1 = 0.35): 0.97 ± 0.08 mPa·s
viscosity (323.15 K, x1 = 0.44): 0.87 ± 0.07 mPa·s
viscosity (323.15 K, x1 = 0.5599): 0.74 ± 0.06 mPa·s
viscosity (323.15 K, x1 = 0.65): 0.64 ± 0.05 mPa·s
viscosity (323.15 K, x1 = 0.74): 0.54 ± 0.04 mPa·s
viscosity (323.15 K, x1 = 0.85): 0.42 ± 0.03 mPa·s
viscosity (323.15 K, x1 = 0.94): 0.32 ± 0.03 mPa·s
viscosity (323.15 K, x1 = 1): 0.25 ± 0.02 mPa·s
mass density (323.15 K, x1 = 0.0809): 783.9 ± 1 kg/m3
mass density (323.15 K, x1 = 0.1599): 783.9 ± 1 kg/m3
mass density (323.15 K, x1 = 0.2402): 783.5 ± 1 kg/m3
mass density (323.15 K, x1 = 0.35): 782.7 ± 1 kg/m3
mass density (323.15 K, x1 = 0.44): 781.8 ± 1 kg/m3
mass density (323.15 K, x1 = 0.5599): 780.1 ± 1 kg/m3
mass density (323.15 K, x1 = 0.65): 778.4 ± 1 kg/m3
mass density (323.15 K, x1 = 0.74): 776.4 ± 1 kg/m3
mass density (323.15 K, x1 = 0.85): 773.4 ± 1 kg/m3
mass density (323.15 K, x1 = 0.94): 770.6 ± 1 kg/m3
mass density (323.15 K, x1 = 1): 768.2 ± 1 kg/m3
